Source: US20230242553A1, “PROCESS FOR THE PREPARATION OF 1-METHYL-6-[6-R2-5-METHYL-8-(METHYLAMINO)-4-[ (3AS,6AS)-5-METHYL-2,3,3A,4,6,6A-HEXAHYDROPYRROLO[2,3-C]PYRROL-1-YL]-9H-PYRIDO[2,3-B]INDOL-3-YL]-4-OXO-1,8-NAPHTHYRIDINE-3-CARBOXYLIC ACID HYDROCHLORIDE” (Hoffmann-La Roche Inc., priority 2020, published 2023)
Where a name gives a salt, the structure may show the parent alone.

Assay: Stability experiment of final compound: solid in sealed vial kept in oven, purity checked by UPLC
Format: physicochemical
Conditions: for Stability Result Solid at 20° C./7day (purity) / Stability Result Solid at 100° C./1 day (purity): 10 mg solid in 4 mL vial with sealed cap; for Stability Result Solid at 20° C./7day (purity): 7 days; for Stability Result Solid at 20° C./7day (purity) / Stability Result Solid at 100° C./1 day (purity) / Initial Purity: purity by UPLC; for Stability Result Solid at 100° C./1 day (purity): oven 100° C.; for Initial Purity: solid before storage; for Stability of HCl salt compared with freebase form: conclusion in words from Table 2
From the text: Stability Experiment of Final Compound of Formula (I)
Freebase of Example 4: 6-[5-cyano-6-fluoro-8-(methylamino)-4-[(3aS,6aS)-5-methyl-2,3,3a,4,6,6a-hexahydropyrrolo[2,3-c]pyrrol-1-yl]-9H-pyrido[2,3-b]indol-3-yl]-1-methyl-4-oxo-1,8-naphthyridine-3-carboxylic acid; initial purity: 99.16%
HCl salt compound (Example 4): 6-[5-cyano-6-fluoro-8-(methylamino)-4-[(3aS,6aS)-5-methyl-2,3,3a,4,6,6a-hexahydropyrrolo[2,3-c]pyrrol-1-yl]-9H-pyrido[2,3-b]indol-3-yl]-1-methyl-4-oxo-1,8-naphthyridine-3-carboxylic acid; hydrochloride; initial purity: 98.50%
Freebase of Example 8: 6-[5,6-difluoro-8-(methylamino)-4-[(3aS,6aS)-5-methyl-2,3,3a,4,6,6a-hexahydropyrrolo[2,3-c]pyrrol-1-yl]-9H-pyrido[2,3-b]indol-3-yl]-1-methyl-4-oxo-1,8-naphthyridine-3-carboxylic acid; initial purity: 97.96%
HCl salt compound (Example 8): 6-[5,6-difluoro-8-(methylamino)-4-[(3aS,6aS)-5-methyl-2,3,3a,4,6,6a-hexahydropyrrolo[2,3-c]pyrrol-1-yl]-9H-pyrido[2,3-b]indol-3-yl]-1-methyl-4-oxo-1,8-naphthyridine-3-carboxylic acid; hydrochloride; initial purity: 97.80%
Condition: 10 mg of compound in 4 mL vial with sealed cap. Keep in oven at certain temperature for certain days. Then, the purity of solid was checked by UPLC.

| Stability Result Solid at 20° C./7day (purity) [%] | Stability Result Solid at 100° C./1 day (purity) [%] | Initial Purity [%] | Stability Result Solid at 20° C./7day (purity) (dihydrochloride) [%] | Stability Result Solid at 100° C./1 day (purity) (dihydrochloride) [%] | Stability of HCl salt compared with freebase form | SMILES |
| --- | --- | --- | --- | --- | --- | --- |
| 95.73 | 93.35 | 99.16 |  |  |  | CNc1cc(F)c(C#N)c2c1[nH]c1ncc(-c3cnc4c(c3)c(=O)c(C(=O)O)cn4C)c(N3CC[C@H]4CN(C)C[C@H]43)c12 [Freebase of Example 4, 6-[5-cyano-6-fluoro-8-(methylamino)-4-[(3aS,6aS)-5-methyl-2,3,3a,4,6,6a-hexahydropyrrolo[2,3-c]pyrrol-1-yl]-9H-pyrido[2,3-b]indol-3-yl]-1-methyl-4-oxo-1,8-naphthyridine-3-carboxylic acid] |
| 96.72 | 91.08 | 97.96 |  |  |  | CNc1cc(F)c(F)c2c1[nH]c1ncc(-c3cnc4c(c3)c(=O)c(C(=O)O)cn4C)c(N3CC[C@H]4CN(C)C[C@H]43)c12 [Freebase of Example 8, 6-[5,6-difluoro-8-(methylamino)-4-[(3aS,6aS)-5-methyl-2,3,3a,4,6,6a-hexahydropyrrolo[2,3-c]pyrrol-1-yl]-9H-pyrido[2,3-b]indol-3-yl]-1-methyl-4-oxo-1,8-naphthyridine-3-carboxylic acid] |
|  |  | 98.50 | 98.67 | 98.48 | much more stable than its freebase form | CNc1cc(F)c(C#N)c2c1[nH]c1ncc(-c3cnc4c(c3)c(=O)c(C(=O)O)cn4C)c(N3CC[C@H]4CN(C)C[C@H]43)c12 [HCl salt compound (Example 4), 6-[5-Cyano-6-fluoro-8-(methylamino)-4-[(3aS,6aS)-5-methyl-2,3,3a,4,6,6a-hexahydropyrrolo[2,3-c]pyrrol-1-yl]-9H-pyrido[2,3-b]indol-3-yl]-1-methyl-4-oxo-1,8-naphthyridine-3-carboxylic acid; dihydrochloride] |
|  |  | 97.80 | 97.78 | 97.77 | much more stable than its freebase form | CNc1cc(F)c(F)c2c1[nH]c1ncc(-c3cnc4c(c3)c(=O)c(C(=O)O)cn4C)c(N3CC[C@H]4CN(C)C[C@H]43)c12 [HCl salt compound (Example 8), 6-[5,6-Difluoro-8-(methylamino)-4-[(3aS,6aS)-5-methyl-2,3,3a,4,6,6a-hexahydropyrrolo[2,3-c]pyrrol-1-yl]-9H-pyrido[2,3-b]indol-3-yl]-1-methyl-4-oxo-1,8-naphthyridine-3-carboxylic acid; dihydrochloride] |
